Literature values in patent publication US12569628B2, “Delivery of medicinal gas in a liquid medium” (Third Pole, Inc., priority 2022, dated 2026).
Like-named read-outs stand apart in the source and are kept apart here.

What was measured:
immune system = details: low concentrations

[N]=O [NO, nitric oxide]
concentration at which NO stimulates the immune system (immune system): 10^−12 to 10^−9 M
Henry's law constant kH (NO in alcohol): approximately 6.65×10^−5 mol/m^3 Pa
Henry's law constant kH (NO in water): 1.9×10^−5 mol/m^3 Pa
